# Measured values reported in patent US5843941A, “Ras farnesyl transferase inhibitors” (Genentech, Inc., priority 1994, dated 1998).
# Read-outs that look alike come from different tables or passages of the source.
# Tests used:
# CAAX farnesyltransferase [1] = molecular target: T1, CAAX farnesyltransferase (Rattus norvegicus, UniProt Q02293+Q04631); experiment: In vitro inhibition of CAAX farnesyltransferase; format: biochemical; set-up: purified to homogeneity from rat brain homogenates; from tissue; host or cells: rat brain; alternatively recombinant enzyme from a baculovirus expression system; conditions: Table D
# T1 sequence (Q02293 whole entry, one chain of several): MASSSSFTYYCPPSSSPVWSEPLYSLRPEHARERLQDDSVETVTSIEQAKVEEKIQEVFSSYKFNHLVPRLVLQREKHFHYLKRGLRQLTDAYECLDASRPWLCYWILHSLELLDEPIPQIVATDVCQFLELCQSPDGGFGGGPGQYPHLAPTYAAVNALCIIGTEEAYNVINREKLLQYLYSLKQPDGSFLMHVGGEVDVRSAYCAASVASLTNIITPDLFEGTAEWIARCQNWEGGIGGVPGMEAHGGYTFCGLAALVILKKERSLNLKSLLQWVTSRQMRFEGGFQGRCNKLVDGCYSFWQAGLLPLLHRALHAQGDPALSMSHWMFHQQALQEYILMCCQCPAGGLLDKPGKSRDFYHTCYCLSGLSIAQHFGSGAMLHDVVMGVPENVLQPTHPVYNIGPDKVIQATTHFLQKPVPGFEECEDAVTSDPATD
# Description: All compounds were tested for in vitro inhibition of CAAX protein farnesyltransferase. […] Alternatively, recombinant CAAX protein farnesyltransferase was also used in this assay. […] Seventy-two hrs after infection, the cells were harvested and disrupted and the enzyme isolated by chromatography on Q-Sepharose.
# After incubation for 30 min at 37° C., the amount of [3H]famesyl group transferred to p21H-ras was measured by precipitation with SDS/trichloroacetic acid, filtration onto nitrocellulose, and scintillation counting.
# Structures of the compounds tested are reproduced below. Compound numbers also refer to example numbers above.
# CAAX farnesyltransferase [2] = molecular target: T1, CAAX farnesyltransferase; experiment: In vitro farnesylation of the compound by CAAX farnesyltransferase (substrate test, thin layer chromatography); format: biochemical; conditions: relative to tetrapeptide CVIM, 3.6 μM, 37° C., 30 min; for % farnesylation "A": diastereomer A; for % farnesylation "B": diastereomer B
# Description: After incubation at 37° C. for 30 min, the reaction was stopped by addition of 2 μl of 250 mM EDTA, and the entire reaction mixture was spotted onto a plastic-backed Silica Gel G thin layer sheet (20×20 cm, Brinkmann Inst.) and placed in a tank containing n-propyl alcohol/ammonium hydroxide/water (6:3:1 v/v/v).
# [3] = diastereomer A, read-out: EC50 (μM) "A"
# [4] = diastereomer B, read-out: EC50 (μM) "B"
SMILES,EC50 (CAAX farnesyltransferase [1]; [3]) [µM],EC50 (CAAX farnesyltransferase [1]; [4]) [µM],"% farnesylation ""A"" (CAAX farnesyltransferase [2]) [%]","% farnesylation ""B"" (CAAX farnesyltransferase [2]) [%]"
CSCC[C@H](NC(=O)CN1C(=O)C(N(C)C(=O)[C@@H](N)CS)CCc2ccccc21)C(=O)O (stereo partly drawn) [compound 9],1.2,0.024,< 1,< 1
CSCC[C@H](NC(=O)CN1C(=O)C(NC(=O)[C@@H](N)CS)CCc2ccccc21)C(=O)O (stereo partly drawn) [compound 10],1.6,1.4,20,< 1
"CSCC[C@H](NC(=O)CN1C(=O)C(N(C)C(=O)[C@@H](N)CS)N=C(c2ccccc2)c2ccccc21)C(=O)O (stereo partly drawn) [compound 27, N-[[3-[(2-amino-3-mercapto-1-oxopropyl)methylamnino]-2,3-dihydro-2-oxo-5-phenyl-1H -1,4-benzodiazepin-1-yl]acetyl]-L-methionine]",0.8,0.0003,5,< 1
"CSCC[C@H](NC(=O)CN1C(=O)C(NC(=O)[C@@H](N)CS)N=C(c2ccccc2)c2ccccc21)C(=O)O (stereo partly drawn) [compound 28, N-[[3-[(2-amino-3-mercapto-1-oxopropyl)amino]-2,3-dihydro-2-oxo-5phenyl-1H-1,4-benzodiazepin-1-yl]acetyl]-L-methionine]",0.38,0.431,9,< 1
CSCC[C@H](NC(=O)CN1C(=O)C(N(C)C(=O)CCS)N=C(c2ccccc2)c2ccccc21)C(=O)O (stereo partly drawn) [compound 29],1.8,1.8,< 1,< 1
CN(C(=O)[C@@H](N)CS)C1N=C(c2ccccc2)c2ccccc2N(CC(=O)N[C@@H](CO)C(=O)O)C1=O (stereo partly drawn) [compound 30],10,0.0084,< 1,< 1
"CC(C)C[C@H](NC(=O)CN1C(=O)C(N(C)C(=O)[C@@H](N)CS)N=C(c2ccccc2)c2ccccc21)C(=O)O (stereo partly drawn) [compound 31, N-[[3-[(2-amino-3-mercapto-1-oxopropyl)methylamino]-2,3-dihydro-2-oxo-5-phenyl-1H -1,4-benzodiazepin-1-yl]acetyl]-L-leucine]",0.084,0.0021,< 1,< 1
"CSCC[C@H](NC(=O)CN1C(=O)C(N(C)C(=O)[C@H](CS)NC(C)=O)N=C(c2ccccc2)c2ccccc21)C(=O)O (stereo partly drawn) [compound 32, N-[[3-[(2-acetylamino-3-mercapto-1-oxopropyl)methylamino]-2,3-dihydro-2-oxo-5-phenyl-1H-1,4-benzodiazepin-1-yl]acetyl]-L-methionine]",1.2,8,110,< 1
"CSCC[C@H](NC(=O)CN1C(=O)C(N(C)C(=O)[C@@H](N)CS)C=C(c2ccccc2F)c2cc(Cl)ccc21)C(=O)O (stereo partly drawn) [compound 80, N-[[3-[(2-amino-3-mercapto-1-oxopropyl)methylamino]-2,3-dihydro-2-oxo-5-(2'-fluorophenyl)-7-chloro-1H-1,4-benzazepin-1-yl]acetyl]-L-methionine]",0.0003,0.0003,,
"CSCC[C@H](NC(=O)CN1C(=O)C(N(C)C(=O)[C@@H](N)CS)N=C(c2ccccc2Cl)c2cc(Cl)ccc21)C(=O)O (stereo partly drawn) [compound 81, N-[[3-[(2-amino-3-mercapto-1-oxopropyl)methylamino]-2,3-dihydro-2-oxo-5-(2'-chlorophenyl)-7-chloro-1H-1,4-benzodiazepin-1-yl]acetyl]-L-methionine]",0.43,0.0002,,
"CSCC[C@H](NC(=O)CN1C(=O)C(N(C)C(=O)[C@@H](N)CS)N=C(c2ccccc2F)c2cc(Cl)ccc21)C(=O)O (stereo partly drawn) [compound 82, N-[[3-[(2-amino-3-mercapto-1-oxopropyl)methylamino]-2,3-dihydro-2-oxo-5-(2'-fluorophenyl)-7-chloro-1H-1,4-benzodiazepin-1-yl]acetyl]-L-methionine]",0.25,0.001,,
"CSCC[C@H](NC(=O)CN1C(=O)C(N(C)C(=O)[C@@H](N)CS)C=C(c2ccccc2)c2cc(Cl)ccc21)C(=O)O (stereo partly drawn) [compound 83, N-[[3-[(2-amino-3-mercapto-1-oxopropyl)methylamino]-2,3-dihydro-2-oxo-5-phenyl-7-chloro-1H-1,4-benzazepin-1-yl]acetyl]-L-methionine]",,0.0007,,
CSCC[C@H](NC(=O)CN1C(=O)C(N(C)C(=O)[C@@H](N)CS)C=C(c2ccccc2Cl)c2cc(Cl)ccc21)C(=O)O (stereo partly drawn) [compound 92],0.001,0.001,,
"CN(C(=O)C(N)CS)C1N=C(c2ccccc2)c2ccccc2N(Cc2cccc(C#N)c2)C1=O (stereo not drawn) [compound 93, N-[[3-[(2-amino-3-mercapto-1-oxopropyl)methylamino]-2,3-dihydro-2-oxo-5-phenyl-1H-1,4-benzodiazepin-1-yl]methyl]-3-benzonitrile]",0.82,0.004,,
"COC(=O)c1cccc(CN2C(=O)C(N(C)C(=O)C(N)CS)N=C(c3ccccc3)c3ccccc32)c1 (stereo not drawn) [compound 94, N-[[3-[(2-amino-3-mercapto-1-oxopropyl)methylamino]-2,3-dihydro-2-oxo-5-phenyl-1H-1,4-benzodiazepin-1-yl]methyl]-3-carboxymethylbenzene]",0.82,0.0042,,
"CN(C(=O)C(N)CS)C1N=C(c2ccccc2)c2ccccc2N(Cc2cccc(C(=O)O)c2)C1=O (stereo not drawn) [compound 95, N-[[3-[(2-amino-3-mercapto-1-oxopropyl)methylamino]-2,3-dihydro-2-oxo-5-phenyl-1H-1,4-benzodiazepin-1-yl]methyl]-3-carboxybenzene]",0.88,0.0066,,
"CN(C(=O)C(N)CS)C1N=C(c2ccccc2)c2ccccc2N(Cc2cccc(-c3nnn[nH]3)c2)C1=O (stereo not drawn) [compound 96, N-[[3-[(2-amino-3-mercapto-1-oxopropyl)methylanino]-2,3-dihydro-2-oxo-5-phenyl-1H-1,4benzodiazepin-1-yl]methyl]-3-tetrazolylbenzene]",0.23,0.0013,,
"COC(=O)c1cccc(CN2C(=O)C(N(C)C(=O)[C@@H](N)CS)N=C(c3ccccc3)c3cc(Cl)ccc32)c1 (stereo partly drawn) [compound 97, N-[[3-[(2-amino-3-mercapto-1-oxopropyl)methylamino]-2,3-dihydro-2-oxo-5-phenyl-7-chloro-1H-1,4-benzodiazepin-1-yl]methyl]-3-carboxymethylbenzene]",,0.0003,,
"CN(C(=O)[C@@H](N)CS)C1N=C(c2ccccc2)c2ccccc2N(Cc2ccc(-c3ccccc3-c3nnn[nH]3)cc2)C1=O (stereo partly drawn) [compound 98, N-[[3-[(2-amino-3-mercapto-1-oxopropyl)methylamino]-2,3-dihydro-2-oxo-5-phenyl-1H-1,4-benzodiazepin-1-yl]methyl]-4-(2-tetrazolylphenyl) benzene]",0.84,0.006,,
"Cc1cccc(CN2C(=O)C(N(C)C(=O)[C@@H](N)CS)N=C(c3ccccc3)c3cc(Cl)ccc32)c1 (stereo partly drawn) [compound 102, N-[[3-[(2-amino-3-mercapto-1-oxopropyl)methylamino]-2,3-dihydro-2-oxo-5-phenyl-7-chloro-1H-1,4-benzodiazepin-1-yl]methyl]-3-methylbenzene]",0.11,0.038,,
"CN(C(=O)[C@@H](N)CS)C1N=C(c2ccccc2)c2cc(Cl)ccc2N(Cc2cccc(C(F)(F)F)c2)C1=O (stereo partly drawn) [compound 103, N-[[3-[(2-amino-3-mercapto-1-oxopropyl)methylamino]-2,3-dihydro-2-oxo-5-phenyl-7-chloro-1H-1,4-benzodiazepin-1-yl]methyl]-3-trifluoromethylbenzene]",0.0074,0.0074,,
"Cc1ccc(CN2C(=O)C(N(C)C(=O)[C@@H](N)CS)N=C(c3ccccc3)c3cc(Cl)ccc32)cc1 (stereo partly drawn) [compound 104, N-[[3-[(2-amino-3-mercapto-1-oxopropyl)methylamino]-2,3-dihydro-2-oxo-5-phenyl-7-chloro-1H-1,4-benzodiazepin-1-yl]methyl]-4-methylbenzene]",0.0048,0.0048,,
"CN(C(=O)[C@@H](N)CS)C1N=C(c2ccccc2)c2cc(Cl)ccc2N(Cc2ccccc2Cl)C1=O (stereo partly drawn) [compound 107, N-[[3-[(2-amino-3-mercapto-1-oxopropyl)methylamino]-2,3-dihydro-2-oxo-5-phenyl-7-chloro-1H-1,4-benzodiazepin-1-yl]methyl]-2-chlorobenzene]",0.006,0.006,,
"CSCC[C@H](NC(=O)CN1C(=O)C(N(C)C(=O)[C@@H](N)CSSC(C)(C)C)C=C(c2ccccc2F)c2cc(Cl)ccc21)C(=O)OC1CCCCC1 (stereo partly drawn) [compound 113, N-[[3-[(2-amino-3-tert-butylthiomercapto-1-oxopropyl)methylamino]-2,3-dihydro-2-oxo-5-(2'-fluorophenyl)-7-chloro-1H-1,4-benzazepin-1-yl]acetyl]-L-methionine cyclohexyl ester]",> 3,> 3,,
"CSCC[C@H](NC(=O)CN1C(=O)C(N(C)C(=O)[C@@H](N)CSSC(C)(C)C)N=C(c2ccccc2)c2ccccc21)C(=O)OC(C)(C)C (stereo partly drawn) [compound 118, N-[[3-[(2-amino-3-tert-butylthiomercapto-1-oxopropyl)methylamino]-2,3-dihydro-2-oxo-5-phenyl-1H-1,4-benzodiazepin-1-yl]acetyl]-L-methionine tert-butyl ester]",,0.9,,
